Test results reported in patent US20090081120A1, “Methods and Compositions for Increasing Patient Tolerability During Myocardial Imaging Methods” (CV Therapeutics, Inc., priority 2006, published 2009).

Columns and labels:
normal subjects [1] = assay: Safety and tolerability of regadenoson with and without prior caffeine; assay type: in vivo, human
Method: (§1) 15O water was used as the radionuclide in the PET scans. There was a 1- to 14-day washout period between dosing days. Blood samples and measures of safety were collected until 120 minutes after study drug administration.
Safety measures included adverse events (AEs), serious adverse events, vital signs (HR and BP), ECG, concomitant medications, and a tolerability questionnaire. All available data from subjects who received the single dose of regadenoson were to be included in the statistical summaries.
ECG intervals and changes from baseline values in ECG intervals were to be presented, as were occurrences of rhythm or conduction abnormalities. Concomitant medication usage was to be summarized.
Tolerability questionnaire responses were to be analyzed using the Wilcoxen rank sum test (“How did you feel?” question) and the exact Cochran-Mantel-Haenszel test (Day 2—only question “How did this test compare to the first test?”).

conscious dogs [2] = assay: Regadenoson-induced coronary vasodilation (CBF) with and without caffeine in conscious dogs; assay type: in vivo, dog; conditions: for change of the maximum increase in CBF induced by Regadenoson vs control: p>0.05
Method: (§2) Sixteen chronically instrumented male mongrel dogs weighing from 22-30 kg were used in the study. The animal protocol was approved by the Institutional Animal Care and Use Committee of New York Medical College and conforms to the Guide for the Care and Use of Laboratory Animal by the United States National Institutes of Health.
(§3) Dogs were sedated with acepromazine (0.3 mg/kg, IM) and anesthetized with pentobarbital sodium (25 mg/kg, IV). After intubation, dogs were artificially ventilated with room air. A thoracotomy was made in the fifth intercostal space using sterile techniques. A Tygon catheter (Cardiovascular Instruments, Wakefield, Mass.) was inserted into the descending thoracic aorta and another one was inserted into the left atrium. In 9 dogs, an ultrasound flow transducer (Transonic Systems, Ithaca, N.Y.) was placed around the left circumflex coronary artery. A solid-state pressure gauge (P6.5, Konisberg Instruments, Pasadena, Calif.) was placed into the left ventricle through the apex. The chest was closed in layers. The catheters and wires were tunneled subcutaneously and externalized through the skin at the back of the dog's neck. Dogs were allowed to recover from the surgery before experiments were performed, and were trained to lie on a table.
(§4) Phasic arterial pressure was measured by connecting the aortic catheter to a strain gauge transducer (P23 ID, LDS Test and Measurement, Valley View, Ohio). Left ventricular pressures were measured by the solid pressure gauge. CBF (mL/min) was measured from an ultrasound flow transducer using a Transonic flowmeter (T206, Transonic Systems, Ithaca, N.Y.). Two indices were used to describe the Regadenoson-induced coronary vasodilation: 1) the maximum increase in CBF and 2) the duration of the 2-fold increase in CBF (the period of time that CBF was elevated to a level ≧2-fold of baseline CBF). All pressure and flow data were acquired and analyzed using a Ponemah System (Version 3.30 or 4.20, LDS Test and Measurement, Valley View, Ohio). MAP and HR were calculated from phasic blood pressure, and LV dP/dtMax was calculated from the left ventricular systolic pressure.
(§5) On the day of an experiment, a dog was placed on a table, where it lay quietly during the experiment. A catheter was inserted into a peripheral vein in the leg and attached to an infusion line to administer drugs without disturbing the dog. The experiment was begun after MAP, HR and CBF were stable.
In 4 dogs, two doses of Regadenoson (5 μg/kg, IV) were given 90 min apart (without blood sampling) to determine if there is tachyphylaxis of Regadenoson-induced coronary vasodilation.
(§6) Regadenoson was supplied by CV Therapeutics, Inc. as a sterile stock solution (Lot#: 803604, 0.08 mg/mL), that was made using 15% Propylene Glycol (pH 7) and was diluted in normal saline before injection.
(§7) The statistical significance of a difference between the value of a parameter at baseline and at the indicated time point after drug administration was determined using a One-Way Repeated Measures ANOVA followed by Tukey's Test. The statistical significance of a difference between responses to Regadenoson in the absence and presence of caffeine was determined using a Two-Way Repeated Measures ANOVA followed by Tukey's Test. Results with p<0.05 were considered to be significant. A computer-based software package (SigmaStat 2.03) was used for statistical analysis. All data are presented as Mean±SEM.

normal subjects [3] = assay: Crossover PET study of regadenoson-induced myocardial blood flow (coronary flow reserve) with caffeine or placebo; assay type: in vivo, human
Method: as §1
Open-label study drug was supplied as sterile stock solution in single-use vials each containing 5 mL of regadenoson (0.08 mg/mL). Regadenoson, 400 μg, was administered as a rapid bolus, through an iv catheter over approximately 10 seconds, followed immediately by a 5 mL saline flush.
On each of 2 study days, subjects received a single dose of regadenoson, administered intravenously as a rapid (10-second) bolus of 5 mL, followed by a 5 mL saline flush. There was a 1- to 14-day washout period between doses.
The CVT tracking number for the placebo capsules was 1341 (Leg 2).
The primary efficacy measure was the log coronary flow reserve (CFR), which is the ratio of stress MBF after regadenoson dosing to the resting MBF.
The data were also to be analyzed using Wilcoxon's rank-sum test.

conscious dogs [4] = assay: Regadenoson-induced changes in hemodynamics (MAP, HR, LVSP, LV dP/dtMax) with and without caffeine in conscious dogs; assay type: in vivo, dog; conditions: for increase in peak HR from baseline: p<0.05 vs control
Method: as §2, §3, §4, §5, §6
as §7, with “The statistical significance of a difference between responses to Regadenoson in the absence and presence of caffeine was determined using a Two-Way Repeated Measures ANOVA followed by Tukey's Test.” left out

[5] = Plasma regadenoson concentrations after IV injection in conscious dogs; conditions: effect of caffeine at 1, 2, 4 or 10 mg/kg
Method: Each dog received an IV injection of 5 μg/kg of Regadenoson. […] LVSP, LV dP/dtMax, MAP, HR and CBF were recorded continuously. Blood samples were taken from the left atrial catheter at 1, 3, 5, 15, 30, 45 and 60 min following injections of Regadenoson.

[6] = caffeine 200 mg po before regadenoson 400 μg IV
[7] = regadenoson 400 μg IV, caffeine 200 mg po
[8] = regadenoson 5 μg/kg IV in the presence of caffeine 1 mg/kg
[9] = regadenoson 5 μg/kg IV in the presence of caffeine 2 mg/kg
[10] = after regadenoson 400 μg IV dosing
[11] = regadenoson 400 μg IV, at any time, 25/43 subjects

Compound: Cn1c(=O)c2c(ncn2C)n(C)c1=O [Caffeine, caffeine]
- effect of caffeine on the severity of AEs (normal subjects [1]; [6]): attenuated
- overall incidence of AEs between the placebo and caffeine groups (normal subjects [1]; [6]): no difference
- effect of caffeine on the HR increase caused by regadenoson (normal subjects [1]; caffeine 200 mg po before regadenoson 400 μg IV, p<0.001): attenuated
- tolerability questionnaire: feeling after the caffeine test vs after the placebo test (normal subjects [1]; caffeine 200 mg po, regadenoson 400 μg IV, p<0.001): felt better
- tolerability questionnaire: comfort during the test (normal subjects [1]; test with caffeine 200 mg po vs placebo, regadenoson 400 μg IV, p<0.001): felt more comfortable
- Baseline values of CBF before and after caffeine treatment (conscious dogs [2]; 45 min after 1, 2, 4, and 10 mg/kg caffeine): not significantly different
- change of the maximum increase in CBF induced by Regadenoson vs control (conscious dogs [2]; regadenoson 5 μg/kg IV 45 min after caffeine 1 mg/kg IV): 2±3%
- change of the maximum increase in CBF induced by Regadenoson vs control (conscious dogs [2]; regadenoson 5 μg/kg IV 45 min after caffeine 2 mg/kg IV): −0.7±3%
- change of the maximum increase in CBF induced by Regadenoson vs control (conscious dogs [2]; regadenoson 5 μg/kg IV 45 min after caffeine 4 mg/kg IV): −16±5%
- change of the maximum increase in CBF induced by Regadenoson vs control (conscious dogs [2]; regadenoson 5 μg/kg IV 45 min after caffeine 10 mg/kg IV): −13±8%
- change in CFR with caffeine (normal subjects [3]; caffeine 200 mg po vs placebo before regadenoson 400 μg IV): no change in CFR detected
- change in CFR (printed: not ≧20%) (normal subjects [3]; caffeine 200 mg po vs placebo before regadenoson 400 μg IV, 95% confidence): < 20%
- exponentiated lower limit of the 90% confidence interval for log CFR (caffeine versus placebo difference) (normal subjects [3]; [7]): 0.80
- exponentiated lower limit of the 95% confidence interval for log CFR (caffeine versus placebo difference) (normal subjects [3]; [7]): 0.78
- exponentiated upper limit of the 90% confidence interval for log CFR (caffeine versus placebo difference) (normal subjects [3]; [7]): 1.06
- exponentiated upper limit of the 95% confidence interval for log CFR (caffeine versus placebo difference) (normal subjects [3]; [7]): 1.08
- peak decrease in MAP from baseline (conscious dogs [4]; regadenoson 5 μg/kg IV in the presence of 4 mg/kg caffeine): 2±5%
- decrease in LVSP from control (conscious dogs [4]; regadenoson 5 μg/kg IV in the presence of 4 mg/kg of caffeine, p>0.05): 1±5%
- increase in MAP from baseline (conscious dogs [4]; regadenoson 5 μg/kg IV in the presence of 10 mg/cg caffeine, insignificant): 9±6%
- increase in LVSP from control (conscious dogs [4]; regadenoson 5 μg/kg IV in the presence of 10 mg/kg caffeine, significant): 11±7%
- decrease in LVSP from baseline (conscious dogs [4]; [8]): 9±3%
- peak decrease in MAP from baseline (conscious dogs [4]; [8]): 13±2%
- decrease in LVSP from baseline (conscious dogs [4]; [9]): 6±2%
- peak decrease in MAP from baseline (conscious dogs [4]; [9]): 13±1%
- increase in peak HR from baseline (conscious dogs [4]; [9]): 109±21%
- increase in peak HR from baseline (conscious dogs [4]; regadenoson 5 μg/kg IV in the presence of caffeine 4 mg/kg): 79±20%
- increase in peak HR from baseline (conscious dogs [4]; regadenoson 5 μg/kg IV in the presence of caffeine 10 mg/kg): 74±16%
- Pharmacokinetic profiles of Regadenoson [5]: not changed

Compound: CNC(=O)c1cnn(-c2nc(N)c3ncn([C@@H]4O[C@H](CO)[C@@H](O)[C@H]4O)c3n2)c1 [Regadenoson, (1-{9-[(4S,2R,3R,5R)-3,4-dihydroxy-5-(hydroxymethyl)oxolan-2-yl]-6-aminopurin-2-yl}pyrazol-4-yl)-N-methylcarboxamide]
- QTc prolongation (>500 msec and change of >60 msec) by ECG analysis, not reported as AE (normal subjects [1]; [10]): one subject
- first degree AV block by ECG analysis, not reported as AE (normal subjects [1]; [10]): one subject
- subjects with sensation of heaviness (normal subjects [1]; regadenoson 400 μg IV): 28%
- subjects with paraesthesia (normal subjects [1]; regadenoson 400 μg IV, 8/43 subjects): 19%
- subjects with headache (normal subjects [1]; regadenoson 400 μg IV, 12/43 subjects): 28%
- subjects with flushing (normal subjects [1]; regadenoson 400 μg IV, 13/43 subjects): 30%
- subjects with palpitations (normal subjects [1]; regadenoson 400 μg IV, 21/43 subjects): 49%
- subjects with dyspnoea (normal subjects [1]; regadenoson 400 μg IV, 24/43 subjects): 56%
- subjects with AEs: ear and labyrinth disorders (normal subjects [1]; regadenoson 400 μg IV, at any time, 1/43 subjects): 2%
- subjects with AEs: gastrointestinal disorders (normal subjects [1]; regadenoson 400 μg IV, at any time, 2/43 subjects): 5%
- subjects with AEs: general disorders and administration site conditions (normal subjects [1]; regadenoson 400 μg IV, at any time, 11/43 subjects): 26%
- subjects with AEs: musculoskeletal and connective tissue disorders (normal subjects [1]; regadenoson 400 μg IV, at any time, 12/43 subjects): 28%
- subjects with AEs: vascular disorders (normal subjects [1]; regadenoson 400 μg IV, at any time, 13/43 subjects): 30%
- subjects with AEs: nervous system disorders (normal subjects [1]; regadenoson 400 μg IV, at any time, 18/43 subjects): 42%
- subjects with AEs: cardiac disorders (normal subjects [1]; [11]): 58%
- subjects with AEs: respiratory, thoracic and mediastinal disorders (normal subjects [1]; [11]): 58%
- decrease in MAP (peak) from baseline (conscious dogs [4]; regadenoson 5 μg/kg IV in the absence of caffeine, baseline 102±2 mm Hg, n=9): 15±2%
- increase in HR (peak) from baseline (conscious dogs [4]; regadenoson 5 μg/kg IV without caffeine, baseline 80±4 beats/min, n=9): 114±14%
- decrease in LVSP (peak) from baseline (conscious dogs [4]; regadenoson 5 μg/kg IV without caffeine, baseline 139±5 mm Hg, n=8): 9±1%
- increase in LV dP/dtMax (peak) from baseline (conscious dogs [4]; regadenoson 5 μg/kg IV, baseline 3240±196 mm Hg/s): 65±7%
